In publication PMC5672024, “Selective Glucocorticoid Receptor Properties of GSK866 Analogs with Cysteine Reactive Warheads” (Frontiers in Immunology, 2017):

Columns and labels:
[1] = system: IL6 mRNA; assay: qPCR of TNF-inducible IL6 in HaCat cells; assay type: cell-based; details: 6 h, 10, 100 or 1,000 nM, TNF 2,500 IU/ml last 4 h
Protocol: qPCR was performed using the GoTaq qPCR Master Mix (Promega) according to manufacturer’s instructions. In short, a 25 µl reaction volume mix per sample was prepared containing 12.5 µl GoTaq qPCR Master Mix, 0.4 µM forward and reverse primer, and nuclease-free water. We used the Rotor-Gene Q qPCR machine of Qiagen with following PCR program: 95°C for 2 min, 40 cycli denaturation (95°C, 15 s) and annealing/extension (60°C, 30 s), and dissociation (60–95°C). […] Each sample was run in triplicate. The median value of the triplicates were taken to calculate the deltaCt-values using GAPDH as the normalization gene.
(A) QPCR assays was performed against the GR target gene GILZ/TSC22D3 in HaCat cells treated for 6 h with different concentrations 10, 100 or 1,000 nM Dex or UAMC-1217. Bar graph plot represents the relative mRNA levels of GILZ/TSC22D3 upon Dex or UAMC-1217 treatment. (B) QPCR assays was performed against the TNF-inducible inflammatory gene interleukin-6 (IL6) in HaCat cells treated for 6 h with different concentrations 10, 100, or 1,000 nM Dex or UAMC-1217 either or not, cotreated for the last 4 h with TNF (2,500 IU/ml) as indicated in panel (B). […] Significant mean differences versus control setups panel (A) or TNF treated setup panel (B) are marked as *** (P < 0.001), **(P < 0.01), * (P < 0.05) and were determined by one-way ANOVA (Dunnetts Posttest).

[2] = system: GR Ser211 phosphorylation; assay: Western blot of GR Ser211 phosphorylation; assay type: cell-based; details: for concentration dependence of GR Ser211 phosphorylation: HaCat cells, 6 h, 10, 100 or 1,000 nM
Protocol: Whole cell extracts contain multiple protease inhibitors (Complete Mini®, Roche) and Halt phosphatase inhibitor cocktail (Thermoscientific). Soluble protein extracts were obtained after three times freeze and thaw cycles and centrifugation at […] for 15 min at 4°C. Samples were separated by sodium dodecyl sulfate-polyacrylamidegel electrophoresis (SDS-PAGE) and transferred onto nitrocellulose membranes (Hybond C, Amersham) following standard protocols. After blocking, membranes were incubated overnight at 4°C with the primary antibodies: anti-GR (sc-8992, SantaCruz Biotechnology), anti-phospho-GR Ser211 (4161, Cell Signalling) and anti-Actin (A3853, Sigma-Aldrich) followed by dye-conjugated secondary antibodies (LI-COR® Biosciences). Bound complexes were detected with the Odyssey® infrared imaging system (LI-COR®) and quantified by Image J software.
Figure 5 Selective glucocorticoid receptor agonist GSK866 and its analogs UAMC-1217, UAMC-1218 trigger glucocorticoid receptor (GR) Ser211 phosphorylation. (A) Western detection of expression levels of Actin, GR, and GR Ser S211 phosphorylation in HaCat cells following 6 h treatment with 1 µM Dex, UAMC-1217, UAMC-1218, or GSK866. (B) Bar plot representation of Western blot intensities of Actin, GR, and GR Ser S211 phosphorylation observed in panel A, as quantified by Image J. (C) Western detection of expression levels of Actin, GR expression, and Ser S211 phosphorylation in HaCat cells following 6 h treatment with, respectively, 10, 100, or 1,000 nM Dex or UAMC-1217. (D) Bar plot representation of Western blot intensities of Actin, GR, and GR Ser S211 phosphorylation observed in panel (C), as quantified by free Image J software.

[3] = system: GR nuclear translocation in A549 cells; assay: Immunofluorescence of nuclear GR translocation in A549 cells; assay type: cell-based, human; details: serum starved A549 cells, 1 µM, 30 min
Protocol: To detect endogenous GR in A549 cells, cells were grown in serum free media for 24 h followed by treatment with 1 µM of specific GR ligands. After 30 min of treatment, cells on the cover glass were fixed in 4% formaldehyde in phosphate-buffered saline (PBS), permeabilized with 0.3% Triton X-100–PBS, and then blocked in 5% milk, 10% FCS, 0.3% bovine serum albumin, and 0.3% Triton X-100 in PBS for 30 min at room temperature. Primary antibodies against anti GR-antibody (SantaCruz Biotechnology) were used at a dilution of 1:200. Nuclei were stained by DAPI and samples were analyzed using a confocal Leica LSM410 microscope. To quantify nuclear translocation of GR in a standardized manner, multichannel fluorescence images were analyzed using a script for FIJI image analysis freeware (http://fiji.sc) that is essentially based on a pipeline described before (CellBlocks.ijm) ([39]), and is available upon request. In brief, the analysis first segments nuclei in the Hoechst/DAPI channel and then uses the nuclear mask to define perinuclear cytoplasmic regions of interest (ROIs). Nuclei are detected after local contrast enhancement and Gaussian smoothing to, respectively, cover for spatial illumination heterogeneity and noise. After automatic thresholding (Isodata algorithm), touching nuclei are separated using a conditional watershed algorithm ([40]). Next, cytoplasmic ROIs are determined as concentric bands around the nuclei by Voronoi-restrained region growing ([41]). Finally, the average intensity of the GR channel is measured in both the nuclear and cytoplasmic ROIs and the nuclear-to cytoplasm signal intensity ratio (N/C Ratio) is calculated per cell (Figure S1 in Supplementary Material) ([42]).
Figure 6 Selective glucocorticoid receptor agonist GSK866 analogs UAMC-1217, UAMC-1218, but not UAMC-1158 and UAMC-1159 trigger nuclear glucocorticoid receptor (GR) translocation. (A) Serum starved A549 cells were left solvent treated or treated for 30 min with 1 µM Dex, Dex-mesylate (Dex-Mes), GSK866, UAMC-1158, UAMC-1159, UAMC-1217, or UAMC-1218. GR translocation was evaluated by immunofluorescence whereas nuclei were stained by DAPI dye. Magnification is at 100×. White scalebars represent […]. (B) Automated image quantification of GR translocation of three replicate immunofluorescence images of the different experimental setups.

SMILES	TNF-induced IL6 gene expression [1]	concentration dependence of GR Ser211 phosphorylation [2]	nuclear GR translocation [3]	GR Ser211 phosphorylation ([2]; 1 µM, 6 h (UAMC-1158: Figure S2, 4 or 24 h))
C[C@@H]1C[C@H]2[C@@H]3CCC4=CC(=O)C=C[C@]4(C)[C@@]3(F)[C@@H](O)C[C@]2(C)[C@@]1(O)C(=O)CO [Dex, Dexamethasone, reference compound]	dose-dependently reverse TNF induced IL6 gene expression	concentration-dependent increase of GR Ser211 phosphorylation	induce (partial) translocation of GR from the cytosol to the nucleus	–
CCN(C[C@@](O)(CNC(=O)c1cnn(-c2ccc(F)cc2)c1N)C(F)(F)F)C(=O)c1c(Cl)ccc(NC(=O)CCl)c1Cl [UAMC-1217]	dose-dependently reverse TNF induced IL6 gene expression	concentration-dependent increase of GR Ser211 phosphorylation	induce (partial) translocation of GR from the cytosol to the nucleus	enhance the Ser211 phosphorylation
